{"source": "paper PMC10187093", "about": "“Synthesis, in silico modelling, and in vitro biological evaluation of substituted pyrazole derivatives as potential anti-skin cancer, anti-tyrosinase, and antioxidant agents” (Journal of Enzyme Inhibition and Medicinal Chemistry, 2023)", "key": {"[1]": {"experiment": "DPPH free radical scavenging assay", "experimental": "An initial screen was done of all 25 derivatives at a concentration of 1 mM. […] Methanol was used as the diluent, and 100 µL of DPPH (200 µM; Sigma-Aldrich, St. Louis, MO) was added to each well. […] The scavenging capacity (SC) was calculated as SC% = ((ΔAcontrol – ΔAsample)/ΔAcontrol) × 100%, where ΔAcontrol was the absorbance of the reagent blank, and ΔAsample was the absorbance of the test samples. The control contained all reagents except the compounds, and all tests were performed in triplicate. Quercetin served as a positive control. The DPPH methanolic solution (1 mL) mixed with DMSO (5 µL) served as a negative control."}, "SK-MEL-28 [2]": {"system": "SK-MEL-28", "experiment": "MTT antiproliferative/cytotoxicity assay, SK-MEL-28", "assay_type": "cell-based, human", "details": "Homo sapiens, SK-MEL-28, 48 h, melanoma, MTT, 48 h; read-out: IC50 SKMEL-28", "experimental": "(§1) Human-derived GFP-expressing melanoma A375 and epidermoid carcinoma A431 cell lines were purchased from Angio-Proteomie (Boston, MA). Human melanoma carcinoma SK-MEL-28 and human immortalised keratinocytes (HaCaT) cell lines were acquired from American Type Culture Collection (ATCC; Manassas, VA). Human cutaneous SCC cell line SCC-12[192] was generously provided by Dr. James G. Rheinwald to Dr. Tatiana Efimova. Except SK-MEL-28, which was cultured in an RPMI-1640 medium supplemented with 5% FBS, all other human immortalised cell lines were grown and maintained in DMEM containing varying percentages of FBS; 5% FBS for A431, SCC-12, and HaCaT lines, and 10% FBS for A375. All culture media were routinely supplemented with 1% PEST 100X (100 U/mL penicillin, 100 μg/mL streptomycin), and cells were cultured in incubators maintained at 37 °C under an atmosphere of 95% humidity, 20% O2, and 5% CO2. The growth media of incubated cells were changed every 2–3 days until they attained 70–80% confluence, after which they were sub-cultured for experiments and re-passaging. DMSO was used as the vehicle to prepare a 10 mM stock solution of the test compounds.\n(§2) Stock solutions (10 mM) were prepared by dissolving each compound to be screened in DMSO. From these stock solutions, escalating concentrations were prepared using the corresponding cell growth media as a diluent, and the cells (65–75% confluent) were treated with (0–40 µM) or without the drug in sext- to octuplicate and incubated for 48 h. All treatment protocols and controls were prepared as previously described.\n(§3) The potency and cytotoxicity of the test compounds against two cutaneous melanoma (A375 and SK-MEL-28) and two non-melanoma (A431 and SCC-12) SC cell lines in addition to a control immortalised normal human epidermal keratinocytes (HaCaT) cell line were assessed by MTT assay as previously described."}, "GFP-A431": {"system": "GFP-A431", "experiment": "MTT antiproliferative/cytotoxicity assay, A431", "assay_type": "cell-based, human", "details": "Homo sapiens, A-431, 48 h, non-melanoma, MTT, 48 h; read-out: IC50 GFP-A431", "experimental": "Human-derived GFP-expressing melanoma A375 and epidermoid carcinoma A431 cell lines were purchased from Angio-Proteomie (Boston, MA). Human melanoma carcinoma SK-MEL-28 and human immortalised keratinocytes (HaCaT) cell lines were acquired from American Type Culture Collection (ATCC; Manassas, VA). […] The growth media of incubated cells were changed every 2–3 days until they attained 70–80% confluence, after which they were sub-cultured for experiments and re-passaging. DMSO was used as the vehicle to prepare a 10 mM stock solution of the test compounds.\nStock solutions (10 mM) were prepared by dissolving each compound to be screened in DMSO."}, "A431": {"system": "A431", "experiment": "Scratch wound healing assay, A431", "assay_type": "cell-based, human", "details": "0, ½IC50, IC50, 1½IC50; 48 h; vs untreated control", "experimental": "The scratch wound healing assay was performed to evaluate compound P25’s ability to limit cell migration and scratch wound closure following our previously described protocol. Briefly, cells were seeded in wells of a 24-well plate and incubated to 100% confluent monolayer, following which a sterile 200 µL Gilson pipette tip was used to scratch a straight line across the centre. […] The wounded and re-epithelialisation areas were imaged at 0 h, 24 h, and 48 h using an inverted phase-contrast Olympus IX51 microscope (Olympus America Inc., Center Valley, PA) attached to an Infinity 2 digital camera. Images were processed with an Infinity analysis software version 6.5.6 (Teledyne Lumenera, Ottawa, Canada) and analysed with Adobe Photoshop. The ImageJ software (NIH, Bethesda, MD) was used to measure the migratory area of each treatment group, with results expressed as remaining percentage of unfilled wound surface at 0 h[108]."}, "HaCaT": {"system": "HaCaT", "experiment": "MTT cytotoxicity assay, noncancerous HaCaT keratinocytes", "assay_type": "cell-based, human", "details": "Homo sapiens, HaCaT; control noncancerous keratinocytes, MTT, 48 h; read-out: IC50 HaCaT", "experimental": "as §1, §2, §3"}, "SK-MEL-28 [3]": {"system": "SK-MEL-28", "experiment": "Immunoblotting of apoptosis markers, SK-MEL-28", "assay_type": "cell-based, human", "details": "western blot, 48 h, vs untreated", "experimental": "Immunoblotting was performed according to standard procedures of the Bio-Rad electrophoresis system (Bio-Rad, Hercules, CA) as described earlier. Briefly, protein extracts were obtained by lysing cells in RIPA buffer containing protease inhibitors, and were resolved by 4–12% polyacrylamide ready mini-PROTEAN TGX gel electrophoresis with sodium dodecyl sulphate (SDS) running buffer. Gels were electrotransferred to 0.45 μm nitrocellulose membranes (Bio-Rad, Hercules, CA) in Tris-glycine (TG) buffer using a Trans-Blot Turbo Transfer Pack according to manufacturer’s instructions. Membranes were incubated for 1 h in 5–7% non-fat powdered milk dissolved in TBST (Tris-buffered saline containing 0.05% Tween 20) or 5% BSA for phosphorylated proteins, to saturate nonspecific binding sites, followed by an overnight incubation (4 °C) with primary antibodies. Membranes were washed 5× with TBST and treated with suitable HRP-conjugated secondary antibodies (Amersham Life Science Inc., Arlington Height, IL) for another 2 h at room temperature, followed by additional wash steps and chemiluminescence-based detection with the Amersham ECL Prime detection reagent kit and the Bio-Rad Quantity One ChemiDoc™ detection and imaging analysis software systems as described earlier[108]^,[109]."}}}
{"smiles": "O=C1CC(c2ccccc2)=NN1c1ccc(Br)cc1", "note": "[P25]", "values": [{"measurement": "Percent Scavenging (DPPH)", "setting": "[1]; 1 mM", "value": 77.30, "unit": "%"}, {"measurement": "IC50", "setting": "[1]; N.A. = No Activity, > 1000 = not biologically relevant, read-out: IC50 Value, DPPH antioxidant activity (Table S4)", "value": 190, "unit": "µM"}, {"measurement": "IC50", "setting": "SK-MEL-28 [2]", "value": "7.6 ± 0.6", "unit": "µM"}, {"measurement": "IC50", "setting": "GFP-A431", "value": "3.7 ± 0.5", "unit": "µM"}, {"measurement": "scratch wound closure / migration, A431", "setting": "A431", "value": "significantly and dose-dependently decreased the scratch wound areas"}, {"measurement": "IC50", "setting": "HaCaT", "value": "30.5 ± 2", "unit": "µM"}, {"measurement": "activated caspase-3, caspase-9 and cleaved PARP levels, SK-MEL-28", "setting": "SK-MEL-28 [3]; concentration-dependent", "value": "substantially increased levels"}, {"measurement": "anti-apoptotic Bcl-2 protein levels, SK-MEL-28", "setting": "SK-MEL-28 [3]", "value": "corresponding decreases"}, {"measurement": "pro-apoptotic Bax expression, SK-MEL-28", "setting": "SK-MEL-28 [3]", "value": "dose-dependent amplified expression"}]}
